Test [1] in a line: Luminescence Cell-Based Dose Retest to Confirm Inhibitors of Cancer Stem Cells. [Related pubchem assays (depositor defined):AID2717, AID2721]. The class given is functional. To be noted: Homo sapiens.
The target in test [2] is T1, High affinity choline transporter 1 (Homo sapiens, UniProt Q9GZV3).
T1 sequence (Q9GZV3 whole entry): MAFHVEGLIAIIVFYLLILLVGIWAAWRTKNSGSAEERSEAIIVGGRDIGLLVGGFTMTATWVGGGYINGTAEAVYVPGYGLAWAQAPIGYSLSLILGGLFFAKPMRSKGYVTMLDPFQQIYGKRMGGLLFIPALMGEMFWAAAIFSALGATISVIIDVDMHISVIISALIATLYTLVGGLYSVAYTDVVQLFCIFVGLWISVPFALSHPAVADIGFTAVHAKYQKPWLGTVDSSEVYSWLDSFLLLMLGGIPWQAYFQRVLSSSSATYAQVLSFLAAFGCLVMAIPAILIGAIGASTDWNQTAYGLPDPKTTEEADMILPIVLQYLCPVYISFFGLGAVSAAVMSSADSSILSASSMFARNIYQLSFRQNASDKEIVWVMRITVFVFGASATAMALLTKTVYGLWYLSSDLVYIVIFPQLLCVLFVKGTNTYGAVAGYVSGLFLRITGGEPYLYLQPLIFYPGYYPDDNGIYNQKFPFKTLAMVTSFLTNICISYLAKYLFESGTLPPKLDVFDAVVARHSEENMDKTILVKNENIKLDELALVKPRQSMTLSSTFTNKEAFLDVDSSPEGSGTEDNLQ
Put plainly: CHT inhibitors, dose response, cell-based, 5-point CRC, membrane potential dye (AID 504840). The test is classed as functional.

Test [3] relates to Vero. Put plainly: Vero cell cytotoxicity, cytotoxicity control for flavivirus capping enzyme inhibitors (AID 588742). The class given is functional. The conditions noted are these: Chlorocebus sabaeus.
For test [4], the target named is T1, High affinity choline transporter 1. Put plainly: CHT inhibitors, dose response, cell-based, 10-point CRC, membrane potential dye (AID 588401).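 Also: membrane potential dye fluorescence of choline-evoked depolarization via CHT.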 The test is classed as functional.
The target of test [5] is Genome polyprotein (dengue virus type 2, UniProt P29990). Put plainly: Dengue-2 NS5 methyltransferase inhibitors, primary screen, biochemical, confirmation dose response (AID 588689). The class given is functional.
Sequence of Genome polyprotein (P29990 2492-3391 limits assumed): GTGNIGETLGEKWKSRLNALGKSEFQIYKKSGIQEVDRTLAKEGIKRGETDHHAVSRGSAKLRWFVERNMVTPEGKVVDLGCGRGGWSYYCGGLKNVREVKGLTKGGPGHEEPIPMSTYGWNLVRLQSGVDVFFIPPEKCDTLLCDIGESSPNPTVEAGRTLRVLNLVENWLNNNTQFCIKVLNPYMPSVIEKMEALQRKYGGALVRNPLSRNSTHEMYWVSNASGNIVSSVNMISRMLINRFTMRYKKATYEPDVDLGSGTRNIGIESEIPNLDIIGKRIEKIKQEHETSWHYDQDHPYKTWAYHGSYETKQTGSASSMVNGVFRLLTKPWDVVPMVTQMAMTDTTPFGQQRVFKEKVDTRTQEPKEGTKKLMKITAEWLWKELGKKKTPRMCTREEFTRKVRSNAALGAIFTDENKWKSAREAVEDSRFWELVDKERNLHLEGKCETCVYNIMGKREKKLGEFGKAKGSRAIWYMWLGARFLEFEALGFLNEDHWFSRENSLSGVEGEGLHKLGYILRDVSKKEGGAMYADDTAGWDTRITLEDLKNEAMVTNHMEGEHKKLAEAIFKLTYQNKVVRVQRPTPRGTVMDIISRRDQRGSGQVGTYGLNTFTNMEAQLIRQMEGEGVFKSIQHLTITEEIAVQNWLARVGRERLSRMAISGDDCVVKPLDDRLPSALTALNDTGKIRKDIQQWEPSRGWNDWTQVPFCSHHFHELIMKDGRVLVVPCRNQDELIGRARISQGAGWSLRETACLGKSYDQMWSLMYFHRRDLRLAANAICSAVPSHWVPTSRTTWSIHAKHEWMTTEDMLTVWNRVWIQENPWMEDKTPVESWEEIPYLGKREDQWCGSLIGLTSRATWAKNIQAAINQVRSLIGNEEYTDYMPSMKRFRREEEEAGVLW
Test [6] has as its target Large T antigen (Simian virus 40, UniProt P03070). The test is classed as functional, Betapolyomavirus macacae.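 Also: Confirmatory-stage PubChem screen for compounds that inhibit SV40 T antigen.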
In test [7] the target is Induced myeloid leukemia cell differentiation protein Mcl-1 (Homo sapiens, UniProt Q07820). The class given is functional.
Sequence of Induced myeloid leukemia cell differentiation protein Mcl-1 (Q07820 whole entry): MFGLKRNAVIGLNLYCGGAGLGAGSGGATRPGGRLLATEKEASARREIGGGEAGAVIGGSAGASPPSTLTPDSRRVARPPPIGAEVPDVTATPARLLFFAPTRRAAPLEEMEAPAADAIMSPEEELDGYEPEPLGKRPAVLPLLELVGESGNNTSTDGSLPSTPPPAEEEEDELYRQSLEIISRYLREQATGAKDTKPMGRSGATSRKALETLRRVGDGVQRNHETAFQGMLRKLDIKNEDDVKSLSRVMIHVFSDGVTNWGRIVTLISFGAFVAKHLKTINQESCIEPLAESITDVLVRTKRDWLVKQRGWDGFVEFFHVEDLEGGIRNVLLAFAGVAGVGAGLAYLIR
Test [8] concerns HeLa. Put plainly: HeLa cell cytotoxicity, dose response, cytotoxicity control, 24 h, cherry-picked samples (AID 504726).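 Also: potency for cytotoxicity as loss of luminescence signal.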 The test is classed as functional, cell-based. To be noted: Homo sapiens.
The target of test [9] is ORF 73 (Human herpesvirus 8, UniProt O40947). Put plainly: inhibitors of C-LANA binding to LBS DNA, dose response, biochemical, fluorescence polarization, cherry-picked samples (AID 504725).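 Also: fluorescence polarization of a labeled DNA duplex reporting LANA DNA binding; potency is for inhibitors that block LANA binding to the DNA.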 Also noted: species or system Human gammaherpesvirus 8.
Sequence of ORF 73 (O40947 whole entry): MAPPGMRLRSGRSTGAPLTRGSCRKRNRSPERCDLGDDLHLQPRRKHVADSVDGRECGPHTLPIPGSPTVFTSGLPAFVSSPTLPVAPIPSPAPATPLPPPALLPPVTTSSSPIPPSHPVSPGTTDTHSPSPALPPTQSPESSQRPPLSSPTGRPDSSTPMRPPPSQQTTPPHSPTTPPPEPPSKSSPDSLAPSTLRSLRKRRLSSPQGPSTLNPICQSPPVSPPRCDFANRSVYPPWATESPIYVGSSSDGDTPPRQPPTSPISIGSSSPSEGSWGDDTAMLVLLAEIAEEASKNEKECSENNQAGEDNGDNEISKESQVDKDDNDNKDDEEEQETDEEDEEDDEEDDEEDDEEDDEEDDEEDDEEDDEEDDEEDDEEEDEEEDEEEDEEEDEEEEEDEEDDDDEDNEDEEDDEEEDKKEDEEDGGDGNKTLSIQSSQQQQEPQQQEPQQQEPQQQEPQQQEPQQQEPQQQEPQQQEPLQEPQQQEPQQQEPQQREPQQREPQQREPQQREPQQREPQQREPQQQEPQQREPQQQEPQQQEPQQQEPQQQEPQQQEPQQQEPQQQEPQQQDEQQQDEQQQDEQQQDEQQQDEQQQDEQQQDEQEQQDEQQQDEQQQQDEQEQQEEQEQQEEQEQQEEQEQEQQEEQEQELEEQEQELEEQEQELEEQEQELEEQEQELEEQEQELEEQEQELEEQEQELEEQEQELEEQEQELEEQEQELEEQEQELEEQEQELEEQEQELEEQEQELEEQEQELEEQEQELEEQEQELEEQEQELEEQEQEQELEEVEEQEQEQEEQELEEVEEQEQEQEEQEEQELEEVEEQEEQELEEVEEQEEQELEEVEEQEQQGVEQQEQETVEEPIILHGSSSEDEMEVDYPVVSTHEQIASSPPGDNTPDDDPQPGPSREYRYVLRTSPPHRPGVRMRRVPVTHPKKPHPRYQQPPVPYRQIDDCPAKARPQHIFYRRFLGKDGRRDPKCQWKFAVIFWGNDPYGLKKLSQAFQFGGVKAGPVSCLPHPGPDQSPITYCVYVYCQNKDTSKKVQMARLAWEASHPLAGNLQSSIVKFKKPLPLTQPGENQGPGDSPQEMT
In test [10] the target is Intestinal-type alkaline phosphatase (Homo sapiens, UniProt P09923). Kind of test: activation of human intestinal alkaline phosphatase – biochemical, dose response (AID 488873). The test is classed as functional.
Sequence of Intestinal-type alkaline phosphatase (Homo sapiens, UniProt P09923) (P09923 whole entry): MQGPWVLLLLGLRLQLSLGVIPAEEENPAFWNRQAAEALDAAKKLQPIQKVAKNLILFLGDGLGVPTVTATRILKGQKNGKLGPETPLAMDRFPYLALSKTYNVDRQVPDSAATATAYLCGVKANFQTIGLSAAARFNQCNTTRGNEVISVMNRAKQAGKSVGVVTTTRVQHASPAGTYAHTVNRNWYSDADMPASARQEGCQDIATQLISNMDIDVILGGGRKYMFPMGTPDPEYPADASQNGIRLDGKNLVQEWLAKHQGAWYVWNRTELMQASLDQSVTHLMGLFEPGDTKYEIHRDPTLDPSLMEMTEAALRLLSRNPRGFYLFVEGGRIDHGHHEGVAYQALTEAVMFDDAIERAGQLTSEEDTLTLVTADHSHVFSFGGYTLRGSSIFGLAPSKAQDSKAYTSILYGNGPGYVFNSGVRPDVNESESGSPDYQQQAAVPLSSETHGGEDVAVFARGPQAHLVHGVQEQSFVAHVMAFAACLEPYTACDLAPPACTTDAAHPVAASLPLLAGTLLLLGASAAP
In test [11] the target is Intestinal-type alkaline phosphatase (Mus musculus, UniProt P24822). Kind of test: PubChem AID 488785. The class given is functional.
Sequence of Intestinal-type alkaline phosphatase (Mus musculus, UniProt P24822) (P24822 whole entry): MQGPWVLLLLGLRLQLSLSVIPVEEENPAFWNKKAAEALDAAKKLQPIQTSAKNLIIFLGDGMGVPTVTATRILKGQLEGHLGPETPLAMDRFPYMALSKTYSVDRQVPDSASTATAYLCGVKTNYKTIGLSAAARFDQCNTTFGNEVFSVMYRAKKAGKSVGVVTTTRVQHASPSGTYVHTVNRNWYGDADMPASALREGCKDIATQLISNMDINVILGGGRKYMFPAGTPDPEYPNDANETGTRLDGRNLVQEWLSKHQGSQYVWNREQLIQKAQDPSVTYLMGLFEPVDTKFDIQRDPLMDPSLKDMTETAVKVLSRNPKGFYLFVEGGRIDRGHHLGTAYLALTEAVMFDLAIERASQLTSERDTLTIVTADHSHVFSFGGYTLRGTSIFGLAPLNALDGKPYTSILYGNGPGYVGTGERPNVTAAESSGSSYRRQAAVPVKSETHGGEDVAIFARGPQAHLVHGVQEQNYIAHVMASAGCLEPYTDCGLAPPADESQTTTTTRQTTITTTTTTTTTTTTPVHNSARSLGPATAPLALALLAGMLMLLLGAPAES
For test [12], the target named is Eukaryotic translation initiation factor 4E (Mus musculus, UniProt P63073). Put plainly: eIF4E–eIF4G protein interaction inhibitors, dose response, biochemical, TR-FRET (AID 855).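 Also: potency for disrupting eIF4E binding to eIF4GI seen as loss of FRET.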 The class given is functional. A general note: TR-FRET usually uses a lanthanide donor and a delayed reading to cut background.
Sequence of Eukaryotic translation initiation factor 4E (P63073 whole entry): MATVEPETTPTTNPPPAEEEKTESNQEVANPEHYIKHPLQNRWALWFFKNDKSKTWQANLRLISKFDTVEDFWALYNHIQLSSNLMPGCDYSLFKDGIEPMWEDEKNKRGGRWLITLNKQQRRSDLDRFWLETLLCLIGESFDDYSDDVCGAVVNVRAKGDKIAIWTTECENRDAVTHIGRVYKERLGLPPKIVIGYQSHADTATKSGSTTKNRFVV
The target of test [13] is T2, Alkaline phosphatase, tissue-nonspecific isozyme (Homo sapiens, UniProt P05186).
T2 sequence (P05186 whole entry): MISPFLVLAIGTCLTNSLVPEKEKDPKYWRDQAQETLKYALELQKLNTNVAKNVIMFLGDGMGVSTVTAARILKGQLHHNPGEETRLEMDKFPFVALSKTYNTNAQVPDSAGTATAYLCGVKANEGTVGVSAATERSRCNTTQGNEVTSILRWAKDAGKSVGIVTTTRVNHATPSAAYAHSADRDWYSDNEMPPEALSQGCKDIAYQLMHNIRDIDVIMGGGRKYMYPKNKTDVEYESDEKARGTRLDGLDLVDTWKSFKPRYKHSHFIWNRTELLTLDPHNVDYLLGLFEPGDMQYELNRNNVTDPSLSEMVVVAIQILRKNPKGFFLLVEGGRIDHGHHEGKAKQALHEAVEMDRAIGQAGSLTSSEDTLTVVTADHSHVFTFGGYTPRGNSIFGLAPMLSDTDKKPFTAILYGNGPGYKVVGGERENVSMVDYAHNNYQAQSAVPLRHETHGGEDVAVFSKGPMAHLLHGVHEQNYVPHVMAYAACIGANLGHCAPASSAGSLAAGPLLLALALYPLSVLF
Kind of test: TNAP enzyme inhibition by screening hits, dose response, selectivity assay for mouse IAP inhibitor project, biochemical, human TNAP, uHTS hits (AID 488906). The class given is functional.

The target in test [14] is T3, DNA dC->dU-editing enzyme APOBEC-3A (Homo sapiens, UniProt P31941). Kind of test: SAR analysis of small molecule inhibitors of APOBEC3A DNA Deaminase via a fluorescence-based single-stranded DNA deaminase assay - Set 2. The class given is functional. The conditions noted are these: read-out: IC50_Mean.
T3 sequence (P31941 whole entry): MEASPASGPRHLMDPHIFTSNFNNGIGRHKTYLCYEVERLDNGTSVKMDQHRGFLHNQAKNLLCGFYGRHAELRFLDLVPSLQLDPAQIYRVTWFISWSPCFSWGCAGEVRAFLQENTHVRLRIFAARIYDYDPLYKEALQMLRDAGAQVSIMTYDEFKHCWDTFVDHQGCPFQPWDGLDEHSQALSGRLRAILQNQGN
Test [15] has as its target T4, DNA dC->dU-editing enzyme APOBEC-3G (Homo sapiens, UniProt Q9HC16). Kind of test: SAR analysis of small molecule inhibitors of APOBEC3G DNA Deaminase via a fluorescence-based single-stranded DNA deaminase assay - Set 2. The class given is functional. To be noted: read-out: IC50_Mean.
Test [16] has as its target T4, DNA dC->dU-editing enzyme APOBEC-3G. Put plainly: APOBEC3G deaminase inhibitors, SAR follow-up, biochemical, fluorescence, single-stranded DNA substrate (AID 602136). The class given is functional. To be noted: read-out: IC50_Mean.
The target in test [17] is T3, DNA dC->dU-editing enzyme APOBEC-3A. Kind of test: SAR analysis of small molecule inhibitors of APOBEC3A DNA Deaminase via a fluorescence-based single-stranded DNA deaminase assay. To be noted: read-out: IC50_Mean. The test is classed as functional.
For test [18], the target named is T5, Small ubiquitin-related modifier 2 (Homo sapiens, UniProt P61956). Put plainly: SUMO2–SIM peptide binding inhibitors, dose response, selectivity assay for SUMO1 interaction inhibitor project, biochemical, fluorescence polarization, uHTS hits (AID 624385). The test is classed as functional. The conditions noted are these: read-out: IC50_Mean. (In general: In fluorescence polarisation assays a small probe gives low polarisation when free and higher when bound to something large.)
T5 sequence (P61956 whole entry): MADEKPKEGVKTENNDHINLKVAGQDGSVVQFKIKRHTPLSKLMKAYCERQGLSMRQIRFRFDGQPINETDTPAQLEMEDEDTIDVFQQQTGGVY

In test [19] the target is T6, Small ubiquitin-related modifier 1 (Homo sapiens, UniProt P63165). Kind of test: inhibitors of SUMO1 peptide binding, dose response, biochemical, fluorescence polarization, uHTS hits (AID 624382). The test is classed as functional. The conditions noted are these: read-out: IC50_Mean.
T6 sequence (P63165 whole entry): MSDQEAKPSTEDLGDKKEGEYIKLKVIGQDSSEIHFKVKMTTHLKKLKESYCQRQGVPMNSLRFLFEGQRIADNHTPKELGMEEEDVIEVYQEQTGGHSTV
Test [20] addresses T5, Small ubiquitin-related modifier 2. Kind of test: inhibitors of SUMO2 protein-protein interaction, dose response, selectivity assay for SUMO1 interaction inhibitor project, biochemical, FRET, human SUMO2, uHTS hits (AID 624384). The test is classed as functional. To be noted: read-out: IC50_Mean.
The target of test [21] is T6, Small ubiquitin-related modifier 1. Kind of test: inhibitors of SUMO1 partner interactions, dose response, biochemical, FRET (AID 624383). The test is classed as functional. The conditions noted are these: read-out: IC50_Mean.
Test [22] has as its target T7, Histone-lysine N-methyltransferase NSD2 (Homo sapiens, UniProt O96028).
T7 sequence (O96028 whole entry): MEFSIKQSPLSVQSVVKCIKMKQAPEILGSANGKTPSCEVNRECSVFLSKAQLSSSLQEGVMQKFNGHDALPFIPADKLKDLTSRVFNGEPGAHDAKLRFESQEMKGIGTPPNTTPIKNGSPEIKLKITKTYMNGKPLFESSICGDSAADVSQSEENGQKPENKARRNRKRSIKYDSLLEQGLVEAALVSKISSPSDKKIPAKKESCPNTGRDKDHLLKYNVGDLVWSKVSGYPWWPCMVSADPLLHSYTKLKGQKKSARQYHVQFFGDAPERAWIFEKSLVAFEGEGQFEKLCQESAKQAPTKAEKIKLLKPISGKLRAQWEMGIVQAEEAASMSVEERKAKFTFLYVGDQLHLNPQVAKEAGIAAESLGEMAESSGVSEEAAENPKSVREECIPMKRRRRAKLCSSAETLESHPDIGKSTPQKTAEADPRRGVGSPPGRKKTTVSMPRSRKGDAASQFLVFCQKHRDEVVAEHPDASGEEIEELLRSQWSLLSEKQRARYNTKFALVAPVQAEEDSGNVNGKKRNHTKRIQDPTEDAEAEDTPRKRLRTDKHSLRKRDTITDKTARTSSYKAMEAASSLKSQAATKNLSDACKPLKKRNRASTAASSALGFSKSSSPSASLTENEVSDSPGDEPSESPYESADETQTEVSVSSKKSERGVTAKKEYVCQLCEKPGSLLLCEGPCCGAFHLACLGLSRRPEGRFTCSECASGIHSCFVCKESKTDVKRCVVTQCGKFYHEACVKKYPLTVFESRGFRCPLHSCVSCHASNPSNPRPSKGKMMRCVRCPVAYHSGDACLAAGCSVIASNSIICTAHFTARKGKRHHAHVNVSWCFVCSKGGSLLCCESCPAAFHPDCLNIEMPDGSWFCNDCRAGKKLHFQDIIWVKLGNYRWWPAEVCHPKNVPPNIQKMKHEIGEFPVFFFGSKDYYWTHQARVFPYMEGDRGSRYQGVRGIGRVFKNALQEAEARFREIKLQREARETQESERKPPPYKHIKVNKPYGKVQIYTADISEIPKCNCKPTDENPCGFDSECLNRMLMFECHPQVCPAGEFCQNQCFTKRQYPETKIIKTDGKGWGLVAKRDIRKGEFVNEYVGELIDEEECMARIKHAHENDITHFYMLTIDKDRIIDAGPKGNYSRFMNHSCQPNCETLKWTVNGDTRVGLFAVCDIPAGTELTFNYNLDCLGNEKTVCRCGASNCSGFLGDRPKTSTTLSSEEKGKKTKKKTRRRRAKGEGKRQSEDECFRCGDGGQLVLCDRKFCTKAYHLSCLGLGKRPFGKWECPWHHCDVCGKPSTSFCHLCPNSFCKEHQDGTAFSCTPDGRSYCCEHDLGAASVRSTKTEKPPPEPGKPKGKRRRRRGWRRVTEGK
The class given is biochemical.

In test [23] the target is Melanin-concentrating hormone receptor 1 (Homo sapiens, UniProt Q99705). Put plainly: Late-stage fluorescence-based counterscreen for antagonists of the G-protein coupled receptor 7 (GPR7): cell-based dose response assay to identify antagonists of the melanin-concentrating hormone receptor 1 (MCHR1) Set 6. The class given is functional.
Sequence of Melanin-concentrating hormone receptor 1 (Q99705 whole entry): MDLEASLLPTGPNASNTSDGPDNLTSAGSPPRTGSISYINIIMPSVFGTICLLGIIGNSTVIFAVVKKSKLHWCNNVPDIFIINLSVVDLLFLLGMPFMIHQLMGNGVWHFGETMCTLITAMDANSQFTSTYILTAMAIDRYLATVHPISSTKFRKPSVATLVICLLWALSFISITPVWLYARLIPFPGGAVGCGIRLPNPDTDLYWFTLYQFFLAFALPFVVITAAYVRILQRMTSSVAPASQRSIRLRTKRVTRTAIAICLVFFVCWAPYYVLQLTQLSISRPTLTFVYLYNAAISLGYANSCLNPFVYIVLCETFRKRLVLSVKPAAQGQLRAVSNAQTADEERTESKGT
The target of test [24] is T8, Neuropeptides B/W receptor type 1 (Homo sapiens, UniProt P48145).
T8 sequence (P48145 whole entry): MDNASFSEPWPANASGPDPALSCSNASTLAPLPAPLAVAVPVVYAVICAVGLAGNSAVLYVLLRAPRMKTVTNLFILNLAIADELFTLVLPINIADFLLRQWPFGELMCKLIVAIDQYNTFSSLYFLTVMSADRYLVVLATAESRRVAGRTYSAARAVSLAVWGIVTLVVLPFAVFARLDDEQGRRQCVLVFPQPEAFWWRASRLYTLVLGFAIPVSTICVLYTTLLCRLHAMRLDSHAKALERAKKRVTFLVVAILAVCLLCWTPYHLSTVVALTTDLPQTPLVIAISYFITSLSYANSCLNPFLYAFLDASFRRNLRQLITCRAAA
Kind of test: GPR7 antagonist potency, late-stage follow-up, cell-based, fluorescence, dose response, set 6 (AID 588583). The test is classed as functional.

Active and inactive are the calls of the source.

T4 sequence (Q9HC16 whole entry): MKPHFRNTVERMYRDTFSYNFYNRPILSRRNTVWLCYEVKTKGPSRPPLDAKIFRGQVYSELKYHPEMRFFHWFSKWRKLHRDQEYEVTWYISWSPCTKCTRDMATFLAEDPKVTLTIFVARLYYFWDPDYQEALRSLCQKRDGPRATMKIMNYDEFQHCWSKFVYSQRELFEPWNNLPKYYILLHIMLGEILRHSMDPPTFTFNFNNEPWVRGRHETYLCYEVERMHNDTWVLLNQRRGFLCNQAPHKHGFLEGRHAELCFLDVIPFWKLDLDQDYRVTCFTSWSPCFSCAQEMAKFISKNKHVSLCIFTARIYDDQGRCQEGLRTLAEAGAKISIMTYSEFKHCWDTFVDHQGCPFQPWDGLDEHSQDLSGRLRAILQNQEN

A word on the AC50: it is the concentration giving half of the maximal activity seen. One may read the CC50 as the concentration that lowers cell viability or growth by half. Consider `COc1ccc(C)cc1NC(=O)c1ccccc1NS(=O)(=O)c1ccc(Cl)s1`, for which the AC50 in [1] was 5.21 µM (active). In addition, the IC50 in [2] was 5.82 µM (active); in test [4] it was 1.75 µM (active); in test [5], 49.3 µM (active). In addition, the CC50 in [3] is 22.6 µM (active).

A word on the EC50: it is the concentration giving half of the maximal effect. In the case of `CC(=O)c1ccc2c(c1)C1C=CCC1C(C(=O)O)N2` (centres undefined), the IC50 in test [6] was 50.6 µM (active); in test [7], 5.11 µM (active); in [11] it was 6.61 µM (active); in test [12], 50 µM (inactive); in [13] it was 78.5 µM (active); in test [14], 2.32 µM (active). The IC50 in test [15] was 0.989 µM (active); in [16] it was 5.03 µM (active); in test [17], 5.37 µM (active); in test [18], 4.87 µM (active); in test [19] it was 10.9 µM (active); in test [20] it was 1.45 µM (active). Moreover, in test [21], the IC50 is 4.9 µM (active). The results for the AC50 in [8], in test [9] and in test [22] were 277 µM (active), 15 µM (active) and 1.45 µM (active), respectively. Moreover, the EC50 in test [10] was > 100 µM (inactive).

Turning to `N#CC(c1cccc(F)c1)c1c(Cl)cnn(Cc2cccc3ccccc23)c1=O` (centres undefined), the IC50 in test [23] and in test [24] was 0.173 µM (active) each time.

The values are drawn from ChEMBL document CHEMBL1201862, “PubChem BioAssay data set” (2004).
